Numbers after ± are expanded uncertainties.
Columns and labels:
[1] = Molar enthalpy of transition or fusion; conditions: Crystal; DSC
[2] = for vapor or sublimation pressure: Closed cell (Static) method
[3] = molar enthalpy of vaporization or sublimation; conditions: 298.15 K; Crystal; Drop calorimetry

c1ccc2c(c1)-c1cccc3cccc-2c13 [fluoranthene]
Conditions	Molar enthalpy of transition or fusion [kcal/mol]	molar enthalpy [kcal/mol]
[1]	4.63 ± 0.127	–
[3]	–	23 ± 0.669

[2]
Conditions	Normal melting temperature [°C]	vapor or sublimation pressure [kPa]
348.83 K, Crystal	–	0.00042 ± 0.00012
351.82 K, Crystal	–	0.00056 ± 0.00012
354.78 K, Liquid	–	0.00117 ± 0.00013
354.79 K, Crystal	–	0.00076 ± 0.00013
356.76 K, Liquid	–	0.00137 ± 0.00013
357.77 K, Crystal	–	0.00101 ± 0.00013
360.71 K, Liquid	–	0.00185 ± 0.00014
360.73 K, Crystal	–	0.0013 ± 0.00013
363.72 K, Crystal	–	0.00171 ± 0.00014
366.68 K, Crystal	–	0.00225 ± 0.00015
366.68 K, Liquid	–	0.0029 ± 0.00017
368.53 K, Liquid	–	0.0033 ± 0.00018
369.65 K, Crystal	–	0.00292 ± 0.00017
370.63 K, Liquid	–	0.00384 ± 0.0002
372.57 K, Liquid	–	0.00438 ± 0.00021
372.62 K, Crystal	–	0.00379 ± 0.0002
374.61 K, Liquid	–	0.00509 ± 0.00024
375.59 K, Crystal	–	0.00491 ± 0.00023
378.57 K, Liquid	–	0.0067 ± 0.00029
382.51 K, Liquid	–	0.00865 ± 0.00036
384.49 K, Liquid	–	0.00979 ± 0.0004
386.46 K, Liquid	–	0.01118 ± 0.00046
388.46 K, Liquid	–	0.01265 ± 0.00051
390.43 K, Liquid	–	0.01425 ± 0.00054
392.43 K, Liquid	–	0.0161 ± 0.00057
394.39 K, Liquid	–	0.0181 ± 0.0006
396.38 K, Liquid	–	0.02041 ± 0.00063
398.36 K, Liquid	–	0.02287 ± 0.00067
400.35 K, Liquid	–	0.02578 ± 0.00071
402.34 K, Liquid	–	0.02887 ± 0.00076
404.3 K, Liquid	–	0.03224 ± 0.00081
Crystal, DTA	109.69 ± 0.4	–

From the NIST ThermoML archive (doi:10.1016/j.jct.2012.01.025)
